Two molecules from publication PMC8261047, “In vivo Inhibition of the 3-Dehydroquinate Synthase by 7-Deoxysedoheptulose Depends on Promiscuous Uptake by Sugar Transporters in Cyanobacteria” (Frontiers in Microbiology, 2021) can be followed below.

The target in data set [1] is T1, 3-dehydroquinate synthase (AvDHQS, Ava_4386) (Trichormus variabilis, UniProt Q3M4V2).
T1 construct: gene aroB; Ava_4386 in pET22b, C-terminal His-Tag, ∼39 kDa
T1 sequence (Q3M4V2 1-363): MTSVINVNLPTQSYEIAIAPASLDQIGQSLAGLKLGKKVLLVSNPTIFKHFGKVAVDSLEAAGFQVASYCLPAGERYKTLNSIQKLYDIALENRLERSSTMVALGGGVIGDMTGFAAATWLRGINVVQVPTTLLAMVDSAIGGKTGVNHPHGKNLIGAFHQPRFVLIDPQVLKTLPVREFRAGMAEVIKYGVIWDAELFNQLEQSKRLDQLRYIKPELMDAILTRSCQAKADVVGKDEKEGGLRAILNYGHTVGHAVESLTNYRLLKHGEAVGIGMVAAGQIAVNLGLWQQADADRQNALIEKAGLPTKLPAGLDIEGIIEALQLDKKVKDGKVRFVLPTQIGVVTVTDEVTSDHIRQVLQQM
Nature of the data set: Malachite green phosphate release assay with purified AvDHQS; Michaelis-Menten kinetics at […] 7dSh. Format: biochemical.

Substrate in data set [2]: O=C(O)C(=O)C[C@@H](O)[C@H](O)[C@H](O)COP(=O)(O)O
Nature of the data set: Malachite green phosphate release assay with purified AvDHQS; kM of the substrate. The class given is biochemical, Trichormus variabilis. The conditions noted are these: NAD^+.

As a reminder, the Ki is a measure of affinity in units of concentration, obtained from inhibition or displacement. The low end stands for tighter binding, the high end for weaker binding. On to `C[C@@H](O)[C@@H](O)[C@@H](O)[C@H](O)C(=O)CO` [7dSh, 7-deoxy-D-altro-2-heptulose], for which, in data set [1], the affinity corresponds to a Ki of 17.6 µM.

B1: 3-dehydroquinate synthase (AvDHQS, Ava_4386) (Trichormus variabilis ATCC 29413) (protein)
chain: T1 sequence (Q3M4V2 1-363)
notes: Ava_4386 in pET22b, C-terminal His-Tag, ∼39 kDa
By Km is commonly meant the substrate concentration at which the rate is half of its maximum. With B1, in data set [2], the Km stood at 1.8 ± 0.3 µM.
